Results reported in patent publication US12280029B2, “Methods of treatment of inflammation related conditions using pluripotent anti-inflammatory and metabolic modulators” (INSTITUT PASTEUR DE MONTEVIDEO, priority 2016, dated 2025).

How the values were obtained:
[1] = tested on: inflammasome in THP-1 cells differentiated into macrophages; test: Inflammasome inhibition in THP-1 macrophages (LPS + ATP, IL-1b ELISA); assay type: cell-based, human; settings: for inhibition of the inflammasome (IL-1b secretion), applied with the second signal: LPS (250 ng/mL, 3 hs.), then together with ATP (5 mM, 45 minutes), SANA 0.05, 0.125 and 0.25 mM, Salicylic acid 0.25 mM; for inhibition of the inflammasome (IL-1b secretion), applied with the first signal: together with LPS (250 ng/mL, 3 hs.), then ATP (5 mM, 45 minutes), SANA 0.05, 0.125 and 0.25, Salicylic acid 0.2.5 mM
Description: In FIGS. 8 and 9 show the inhibition of inflammasome in THP-1 cells differentiated into macrophages (PMA 200 nM, 48 hs.) by SAMA but not by SA when applied together with the first (FIG. 8) or the second (FIG. 9) signal. In FIG. 8 cells were treated with Salicylic acid (0.2.5 mM) or SANA (0.05; 0.125 and 0.25) together with LPS stimulation. The cells were stimulated with LPS (250 ng/mL, 3 hs.) and then with ATP (5 mM, 45 minutes). Supernatant was collected and IL-1b measured by ELISA. Cell viability was assessed by MTT assay. […] In FIG. 9 THP-1 cells were differentiated into macrophages with PMA (200 nM, 48 hs.). Cells were stimulated with LPS (250 ng/mL, 3 hs.) and then with ATP (5 mM, 45 minutes), Together with ATP treatment, cells were then treated with […] (10 uM), Salicylic acid (0.25 mM) or SANA (0.05; 0.125 and 0.25 mM). Supernatant was collected and IL-1b secretion was measured by ELISA. Cell viability was assessed by the MTT assay.

[2] = tested on: NF-κB/p65 in THP-1 macrophages; test: LPS-induced NF-κB/p65 subcellular localization, immunofluorescence and epifluorescence microscopy; assay type: cell-based, human
Excerpt: Nuclear factor kappa B (NF-κB) represents a family of pro-inflammatory transcription factors, present in all eukaryotic cells, which regulate inducible expression of wide ranging genes involved in immune responses and cell-cycle regulation. Activation of NF-κB is accompanied by nuclear translocation of NF-κB. […] Specifically, FIG. 3 illustrates immunofluorescence and epifluorescence microscopy analysis showing the effect of SANA on LPS-induced NF-κB/p65 subcellular localization in THP-1 macrophages.

[3] = tested on: Nrf2/Keap1-dependent gene expression in Hep G2 cells; test: Phase two enzymes Nrf2/Keap1-dependent gene expression (qPCR); assay type: cell-based; settings: Hep G2, five hours, SANA 0.1 mM, Salicylic Acid 0.2. and 5 mM
Description: FIGS. 6 and 7 show induction of phase two enzymes Nrf2/Keap1-dependent gene expression by SANA but not by SA. Hep G2 cells were treated with SANA (0.1 mM) or Salicylic Acid (0.2. and 5 mM) for five hours. mRNA was extracted from the cells and was measured HO-1, GCLM and NQO1 gene expression by qPCR.

[4] = tested on: NF-kB-dependent gene expression in THP-1 cells differentiated into macrophages; test: NF-kB-dependent gene expression in human macrophages (qPCR); assay type: cell-based; settings: 100 and 200 uM for 2 hours, then LPS (3 hours)
Description: THP-1 cells were differentiated into macrophages. Cells were then treated with SANA (100 and 200 uM) or Salicylic acid (SA: 100 and 200 uM) for 2 hours. Cells were then stimulated with LPS (1 mg/mL, 3 hours) mRNA was extracted and IL-6, TNF-a and MCP-1 fold change gene expression over control were quantified by qPCR.

[5] = Stopped-flow kinetic measurement of the reaction with BME; assay type: physicochemical; settings: 25 μM, BME 0.54-2.73 mM, absorbance at 260 nm, 25° C., triplicate, slope of pseudo first order constants vs BME
Description: In FIG. 2, it is shown that the reaction between SANA and BME was determined to be a second order rate constant. Stopped-flow kinetic measurements were performed using an Rx 2000 stopped flow analyzer (Applied Photophysics). Mixtures of 1.50 μL […] (25 μM) and solutions of BME at 0.54 mM, 1.09 mM, 1.64 mM, 2.18 mM, and 2.73 mM concentrations.
The reaction was monitored by following the absorbance at 260 nm and plots were fitted to a simple exponential decay function using Originlab software (version 8.0.). The observed pseudo first order constant at each concentration of BME was extracted from the equation and plotted against the concentration of BME. The second rate constant of the reaction is derived from the slope of the curve and was 182±6 M^−1s^−1. All experiments were carried out at 25° C. by triplicate.

HFD-induced obese mice = test: Insulin resistance in HFD-induced obese mice (glucose tolerance test); assay type: in vivo; settings: 100 mg/kg gavage every day during four weeks
Description: Mice under RFD for up to 7 months (mean weight around 40 gr.) were treated with SANA (100 mg/kg; gavage) or phosphate buffer (control) every day during four weeks. The glucose tolerance test were run as per well-known standard procedures.

[6] = Adduct formation of SANA with glutathione, followed spectrophotometrically (UV-visible); assay type: physicochemical; settings: pH 7.4, GSH 1 mM, scans every min up to 15 min
Description: (§1) UV-visible spectra was acquired by a Varian Cary 50 Bio. Scans were taken every min up to 15 min.

[7] = tested on: Il-1b secretion into the peritoneum; test: LPS-induced Il-1b secretion into the peritoneum in vivo
[8] = tested on: skin allograft, C57BL/6 female mice grafted with skin of C57BL/6 male mice; test: Skin allograft rejection in mice; assay type: in vivo; settings: from one day before until 15 days after transplantation
Description: C57BL/6 female mice were grafted with skin from the tails of C57BL/6 male mice. The skin graft is a small square (1 cm^2) and it was implanted onto the left subscapular region of the female mice. From one day before the transplantation until 15 days after it, the mice were treated daily with SANA. (1.00 mg/kg, by oral gavage; SANA group) or vehicle (Control group). The vehicle used was a solution of Carboxy-Methyl-cellulose 0.5% m/v and Tween 80 0.5% v/v. At the end of the 15th day of administration, allografts were checked every 48/72 hours to assess the condition of the grafted skin. Rejection was diagnosed clinically when the allograft lost more than 50% of its size and/or more than 10% of allograft was necrotic. […] The study followed the protocol described above for FIG. 1, but further included a Salicylate group. C57BL/6 female mice were grafted with skin from the tails of C57BL/6 male mice. The skin graft is a small square (1 cm^2) and it was implanted onto the left subscapular region of the female mice. From one day before the transplantation until 15 days after it, the mice were treated daily with Salicylate (100 mg/kg, by oral gavage; Salicylate group), SANA (100 mg/kg, by oral gavage; SANA group) or vehicle (Control group). The vehicle used was a solution of Carboxy-Methyl-cellulose 0.5% m/v and Tween 80 0.5% v/v. […]

[9] = Adduct formation of SANA with β-mercaptoethanol, followed spectrophotometrically (UV-visible); assay type: physicochemical; settings: pH 7.4, BME 1 mM, scans every min up to 15 min
Description: as §1

GAPDH = GAPDH (Homo sapiens, UniProt P04406); test: GAPDH activity; assay type: biochemical
Chain of GAPDH (P04406 whole entry, species assumed): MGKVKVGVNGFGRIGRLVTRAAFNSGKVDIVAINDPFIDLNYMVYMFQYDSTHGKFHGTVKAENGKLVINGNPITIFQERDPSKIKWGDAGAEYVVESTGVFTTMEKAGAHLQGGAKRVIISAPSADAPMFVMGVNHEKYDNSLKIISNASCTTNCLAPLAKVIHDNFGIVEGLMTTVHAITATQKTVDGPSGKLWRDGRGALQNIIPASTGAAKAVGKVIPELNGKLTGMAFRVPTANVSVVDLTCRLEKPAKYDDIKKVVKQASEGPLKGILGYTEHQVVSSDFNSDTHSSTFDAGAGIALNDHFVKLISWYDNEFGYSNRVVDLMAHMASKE

Compound | inhibition of the inflammasome (IL-1b secretion), applied with the second signal [1] | inhibition of the inflammasome (IL-1b secretion), applied with the first signal [1] | LPS-induced NF-κB/p65 subcellular localization, effect compared with SANA 0.1 mM ([2]; 1 mM, LPS (1 ug/mL)) | induction of Nrf2/Keap1-dependent gene expression (HO-1, GCLM and NQO1) [3] | inhibition of NF-kB-dependent gene expression (IL-6, TNF-a and MCP-1 mRNA fold change over control) [4] | second rate constant of the reaction with BME [5] | LPS-induced NF-κB/p65 nuclear translocation ([2]; 0.1 mM, 2 hs before activation with LPS (1 ug/mL)) | potency relative to salicylic acid on NF-κB/p65 localization ([2]; SANA 0.1 mM vs salicylic acid 1 mM) | insulin resistance (glucose tolerance test) (HFD-induced obese mice) | adduct formation with GSH (increase of absorption at 360 nm) [6] | LPS-induced Il-1b secretion into the peritoneum [7] | survival of grafted skin vs control group ([8]; 1.00 mg/kg by oral gavage daily) | skin allograft rejection vs salicylic acid ([8]; 100 mg/kg by oral gavage daily, Salicylate 100 mg/kg) | adduct formation with BME (increase of absorption at 360 nm) [9] | inhibition of GAPDH activity (GAPDH)
O=C(O)c1ccccc1O [salicylic acid, reference compound] | cannot inhibit | cannot inhibit | the same effect | not by SA | not able to inhibit NF-kB dependent gene expression | – | – | – | – | – | – | – | – | – | –
O=C(O)c1cc(/C=C/[N+](=O)[O-])ccc1O [SANA, 2-hydroxy-5-(2-nitroethenyl)benzoic acid] | potent inhibitor of the inflammasome | potent inhibitor of the inflammasome | – | induction | inhibition of NF-kB-dependent gene expression | 182 ± 6 M⁻¹ s⁻¹ | lack of nuclear translocation of NF-κB | significantly more potent than salicylic acid | reverses insulin resistance | adduct formation | decreases | prolonged survival of grafted skin as compared to a control group | significant reduction in skin allograft rejection compared to salicylic acid | adduct formation | does not inhibit GAPDH activity
